In PubChem BioAssay AID330 (DTP/NCI, 2004):
Several values for one entry are separate records, joined by “and”; a condition that tells them apart may be missing. Equal values may be shown once. Toxic doses and inconclusive results are not listed. How the source made its calls: active means survival T/C of 150% or more; inactive means T/C below 125% in these data. Peptide text beside a SMILES is read from it.

Test system: P388 leukemia ip, CD2F1 mice, survival T/C
Experiment: NCI In Vivo Anticancer Drug Screen. Data for tumor model P388 Leukemia (intraperitoneal) in CD2F1 (CDF1) mice
Details: endpoint: median survival time, higher = longer survival
Summary of the method: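 Mice carrying the transplanted tumor received test compound or vehicle. Survival was recorded in each group, and the value is the treated-group measurement divided by that of the vehicle-treated control group.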

[1] = dose: 50.0 mg/kg/injection, schedule: Q01DX009 (ip), vehicle: saline with Tween-80
[2] = dose: 100.0 mg/kg/injection, schedule: Q01DX009 (ip), vehicle: saline with Tween-80
[3] = dose: 200.0 mg/kg/injection, schedule: Q01DX009 (ip), vehicle: saline with Tween-80
[4] = dose: 50.0 mg/kg/injection, schedule: Q01DX009 (ip), vehicle: Klucel (hydroxypropylcellulose) (HPC)
[5] = dose: 15.0 mg/kg/injection, schedule: Q01DX005 (ip), vehicle: saline with Tween-80
[6] = dose: 30.0 mg/kg/injection, schedule: Q01DX005 (ip), vehicle: saline with Tween-80
[7] = dose: 60.0 mg/kg/injection, schedule: Q01DX005 (ip), vehicle: saline with Tween-80
[8] = dose: 50.0 mg/kg/injection, schedule: Q01DX005 (ip), vehicle: saline with Tween-80
[9] = dose: 100.0 mg/kg/injection, schedule: Q01DX005 (ip), vehicle: saline with Tween-80
[10] = dose: 200.0 mg/kg/injection, schedule: Q01DX005 (ip), vehicle: saline with Tween-80
[11] = dose: 100.0 mg/kg/injection, schedule: Q04DX002 (ip), vehicle: saline
[12] = dose: 200.0 mg/kg/injection, schedule: Q04DX002 (ip), vehicle: saline
[13] = dose: 400.0 mg/kg/injection, schedule: Q04DX002 (ip), vehicle: saline

Measured: T/C

CS(=O)(=O)OCCCCCCCCCCCC1C=CCC1 (stereo not drawn)
inactive: dose: 100.0 mg/kg/injection, schedule: Q04DX003 (ip), vehicle: saline 94 % of control | dose: 200.0 mg/kg/injection, schedule: Q04DX003 (ip), vehicle: saline 93 % of control | dose: 400.0 mg/kg/injection, schedule: Q04DX003 (ip), vehicle: saline 94 % of control

O=C(O)c1cccnc1Cl
inactive: [1] 103 % of control | [2] 96 % of control | [3] 100 % of control

C/C(=N\NC(=S)N1CCN(c2ccccn2)CC1)c1ncccn1
inactive: dose: 3.13 mg/kg/injection, schedule: Q01DX005 (ip), vehicle: saline with Tween-80 115 % of control | dose: 6.25 mg/kg/injection, schedule: Q01DX005 (ip), vehicle: saline with Tween-80 122 % of control and 123 % of control | dose: 12.5 mg/kg/injection, schedule: Q01DX005 (ip), vehicle: saline with Tween-80 95 % of control

CCOP(=O)(O)CC(=O)NC(CC(=O)O)C(=O)O (stereo not drawn)
inactive: [4] 100 % of control and 111 % of control | dose: 100.0 mg/kg/injection, schedule: Q01DX009 (ip), vehicle: Klucel (hydroxypropylcellulose) (HPC) 103 % of control and 108 % of control | dose: 200.0 mg/kg/injection, schedule: Q01DX009 (ip), vehicle: Klucel (hydroxypropylcellulose) (HPC) 106 % of control

COc1ccc(NC(=S)C#N)cc1
inactive: [5] 99 % of control | [6] 99 % of control | [7] 99 % of control and 117 % of control

CC(C)CC(NC(=O)C(C)NC(=O)CN)C(=O)O (stereo not drawn) (H-Gly-Ala-Leu-OH; configuration not given here)
inactive: [8] 103 % of control | [9] 107 % of control | [10] 99 % of control

OC1(CN2CCCCC2)CCCOCCCOCCCOCCCOCCCOCCC1
inactive: [8] 94 % of control | [9] 99 % of control | [10] 100 % of control

CSCOC/C=C(\C)CCC=C(C)C
inactive: [1] 98 % of control | [2] 100 % of control | [3] 114 % of control

COc1ccc(C(=O)CCS(=O)O)cc1
inactive: [11] 100 % of control | [12] 100 % of control | [13] 99 % of control

O=C1NC(=O)C2(OC3c4ccccc4C=CN3C3=C2C(=O)CCC3)C(=O)N1 (stereo not drawn)
inactive: [8] 94 % of control | [9] 94 % of control | [10] 92 % of control

[Cl][Pt].c1ccc([PH+](CCC[PH+](c2ccccc2)c2ccccc2)CCC[PH+](c2ccccc2)c2ccccc2)cc1
inactive: dose: 12.5 mg/kg/injection, schedule: Q04DX003 (ip), vehicle: saline with Tween-80 109 % of control | dose: 25.0 mg/kg/injection, schedule: Q04DX003 (ip), vehicle: saline with Tween-80 109 % of control | dose: 50.0 mg/kg/injection, schedule: Q04DX003 (ip), vehicle: saline with Tween-80 97 % of control | dose: 100.0 mg/kg/injection, schedule: Q04DX003 (ip), vehicle: saline with Tween-80 95 % of control | dose: 200.0 mg/kg/injection, schedule: Q04DX003 (ip), vehicle: saline with Tween-80 104 % of control

O=c1oc2ccccc2c(O)c1C(c1ccc2c(c1)OCO2)N1CCCC1 (stereo not drawn)
inactive: [5] 100 % of control | [6] 102 % of control | [7] 99 % of control and 103 % of control

O=C1C=C(Cl)C(=O)C(c2ccc(Cl)cc2)=C1
inactive: dose: 6.25 mg/kg/injection, schedule: Q01DX009 (ip), vehicle: Klucel (hydroxypropylcellulose) (HPC) 100 % of control | dose: 12.5 mg/kg/injection, schedule: Q01DX009 (ip), vehicle: Klucel (hydroxypropylcellulose) (HPC) 96 % of control | [4] 92 % of control

FC(F)(F)C1OC2CCCN2C2=C1CCc1ccccc12 (stereo not drawn)
inactive: [11] 108 % of control | [12] 101 % of control | [13] 100 % of control

CN(CCCNc1c2ccccc2nc2ccccc12)CCCNc1c2ccccc2nc2ccccc12
inactive: dose: 1.25 mg/kg/injection, schedule: Q01DX009 (ip), vehicle: other 115 % of control

COc1ccc(OC)c2c(Cl)cc(NCCCN3CCN(CCCNc4cc(Cl)c5c(OC)ccc(OC)c5n4)CC3)nc12
inactive: dose: 50.0 mg/kg/injection, schedule: Q01DX005 (ip), vehicle: Klucel (hydroxypropylcellulose) (HPC) 97 % of control | dose: 100.0 mg/kg/injection, schedule: Q01DX005 (ip), vehicle: Klucel (hydroxypropylcellulose) (HPC) 93 % of control | dose: 200.0 mg/kg/injection, schedule: Q01DX005 (ip), vehicle: Klucel (hydroxypropylcellulose) (HPC) 90 % of control
